# Source: patent EP4782453A1 (Beyang Therapeutics Co., Ltd., priority 2023, dated 2025)
# Key:
# Assay type in all cases: cell-based
# [1] = system: MOLM-13 (carrying MLL-AF9); experiment: Inhibition of proliferation of human tumor cells (Alamar Blue, 7 days), MOLM-13; conditions: Homo sapiens, 168 h, MOLM-13 cells (carrying MLL-AF9), method calls the value GI50
# Outline: (§1)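 Cells seeded at 4,000/well (MV-4-11, MOLM-13) or 3,000/well (KG-1a), treated in duplicate with serial compound dilutions for 7 days at 37°C, 5% CO2. Alamar Blue fluorescence read on Day 7, normalised to 0.1% DMSO Day-7 (high) and Day-0 (low) controls; GI50 derived.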
# MEIS1 gene expression [2] = experiment: Inhibition of MEIS1 gene expression in human tumor cells (qRT-PCR), OCI-AML3; conditions: OCI-AML-3, OCI-AML3 (carrying NPM1c), 48 hours of incubation, relative MEIS1 gene expression vs GAPDH
# Text: (§2) Experimental Example 3: Evaluation of Inhibitory Activity of Compounds Against MEISI Gene Expression in Human Tumor Cells
# (§3) The effect of test samples on MEIS1 gene expression in vitro cultured human leukemia cells MV-4-11 (carrying MLL-AF4), MOLM-13 (carrying MLL-AF9), and OCI-AML3 (carrying NPM1c) was studied.
# (§4) • Human acute lymphoblastic leukemia cells MV-4-11, purchased from American Type Culture Collection, Catalog Number: CRL-9591; • Human acute myeloid leukemia cells MOLM-13, purchased from COBIOER BIOSCIENCES CO., LTD, Catalog Number: CBP60678; • Human acute myeloid leukemia cells OCI-AML3, purchased from COBIOER BIOSCIENCES CO., LTD, Catalog Number: CBP60817; • MEIS1 Primer/Probe, purchased from IDT, Catalog Number: 40831613; and • GAPDH Primer/Probe, purchased from IDT, Catalog Number: 22214836.
# (§5) MV-4-11 cells were cultured in an IMDM medium containing 10% fetal bovine serum, or MOLM-13 and OCI-AML3 cells were cultured in an RPMI-1640 medium containing 20% fetal bovine serum, each supplemented with 100 U·mL^-1 penicillin and 100 µg·mL^-1 streptomycin. These cells were cultured at 37°C with 5% CO2. The suspensions of individual cell lines were prepared in their respective media and seeded into 48-well plates at a density of 100,000 cells/well. On the day of the experiment, a compound stock solution was diluted in a 6-fold gradient using DMSO. Each gradient-diluted stock solution was then further diluted 250-fold with a complete medium to prepare a series of working solutions at different concentrations. Next, 250 µL of working solution (containing the complete medium with a 2-fold serial concentration of the test compound or a positive control compound, or containing a control complete medium) was added to each well. After 48 hours of incubation, cells from the 48-well plate were collected into 1 mL centrifuge tubes, centrifuged at 1000 rpm for 5 minutes, and the complete medium was removed. Cells were washed twice with 1 mL PBS and centrifuged to remove PBS. Total RNA was extracted using the RNeasy Mini Kit (250) (QIAGEN, 74106). The threshold cycle (Ct) value for gene expression was determined using the HiScript II U+ One Step qRT-PCR Probe Kit (Vazyme) (Vazyme, Q223-01), with 3 replicates per sample. The prepared reaction mixture was placed in an ABI 7500 real-time PCR instrument, and the reaction proceeded following the procedures below. [formula]
# (§6) Next, for the relative MEIS1 gene expression, the concentration (EC50) that inhibits 50% of relative MEIS1 gene expression was calculated using GraphPad Prism 8 software.
# [3] = system: MV-4-11 (carrying MLL-AF4); experiment: Inhibition of proliferation of human tumor cells (Alamar Blue, 7 days), MV-4-11; conditions: Homo sapiens, MV4-11, 168 h, MV-4-11 cells (carrying MLL-AF4), method calls the value GI50
# Outline: as §1
# MEIS1 gene expression [4] = experiment: Inhibition of MEIS1 gene expression in human tumor cells (qRT-PCR), MOLM-13; conditions: MOLM-13 (carrying MLL-AF9), 48 hours of incubation, relative MEIS1 gene expression vs GAPDH
# Text: as §2, §3, §4, §5, §6
# KG-1a (wild-type MLL) = experiment: Inhibition of proliferation of human tumor cells (Alamar Blue, 7 days), KG-1a control cell line; conditions: 168 h, KG-1a cells (wild-type MLL, control cell line), method calls the value GI50
# Outline: as §1
SMILES,IC50 [1] [nM],EC50 (MEIS1 gene expression [2]) [nM],IC50 [3] [nM],EC50 (MEIS1 gene expression [4]) [nM],IC50 (KG-1a (wild-type MLL)) [nM]
COCCN(C)CCC[C@H](C(C)C)N1CC(c2cc(-c3ccc(F)cc3C(=O)N3CCOC[C@H]3C)c3c(F)nc(C)n3c2)C1 [Example 200-1],10.2,13,3.2,1,20000
COC1CCN(CCCC(C(C)C)N2CC(c3cc(-c4ccc(F)cc4C(=O)N4CCOCC4C)c4c(F)nc(C)n4c3)C2)C1 (centres unmarked) [Example 201-1],5.1,2.4,2.4,1,20000
"COC1CCN(CCC[C@H](C(C)C)N2CC(c3cc(-c4ccc(F)cc4C(=O)N4CCOC[C@H]4C)c4c(F)nc(C)n4c3)C2)CC1 [Example 204, (3R)-4-[5-fluoro-2-(1-fluoro-6-{1-[(3R)-6-(4-methoxypiperidin-1-yl)-2-methylhexan-3-yl]azacyclobutan-3-yl}-3-methylimidazo[1,5-a]pyridin-8-yl)benzoyl]-3-methylmorpholine]",11.2,13,2.8,4.3,18000
"CC(=O)N1CCC([C@H](C)N2CC(c3cc(-c4ccc(F)cc4C(=O)N4CCOC[C@H]4C)c4c(F)nc(C)n4c3)C2)CC1 [Example 257-2, 1-{4-[(1S)-1-[3-(1-fluoro-8-{4-fluoro-2-[(3R)-3-methylmorpholin-4-carbonyl]phenyl}-3-methylimidazo[1,5-a]pyridin-6-yl)azacyclobutan-1-yl]ethyl]piperidin-1-yl}ethan-1-one]",31,33,17,15,20000
CC(=O)N1CCN(CCC[C@H](C(C)C)N2CC(c3cc(-c4ccc(F)cc4C(=O)N4CCOC[C@H]4C)c4c(F)nc(C)n4c3)C2)CC1 [Example 265],25,70,8.6,38,20000
"Cc1nc(F)c2c(-c3ccc(F)cc3C(=O)N3CCOC[C@H]3C)cc(C3CN([C@H](CCCN4CCN(C)CC4)C(C)C)C3)cn12 [Example 275, (3R)-4-[5-fluoro-2-(1-fluoro-3-methyl-6-{1-[(3R)-2-methyl-6-(4-methylpiperazin-1-yl)hexan-3-yl]azacyclobutan-3-yl}imidazo[1,5-a]pyridin-8-yl)benzoyl]-3-methylmorpholine]",9.4,16,2.6,7.7,20000
CCN1CCN(CCC[C@H](C(C)C)N2CC(c3cc(-c4ccc(F)cc4C(=O)N4CCOC[C@H]4C)c4c(F)nc(C)n4c3)C2)CC1 [Example 277],7.3,12,1.6,3.3,20000
Cc1nc(F)c2c(-c3ccc(F)cc3C(=O)N3CCOC[C@H]3C)cc(C3CN([C@H](CCCN4CCC[C@H](O)C4)C(C)C)C3)cn12 [Example 293],24,31,2,9.1,20000
"CCN(C(=O)c1cc(F)ccc1-c1cc(C2CN([C@H](CCCN3CCN(C)CC3)C(C)C)C2)cn2c(C)ncc12)C(C)C [Example 310-2, N-ethyl-5-fluoro-2-(3-methyl-6-{1-[(3R)-2-methyl-6-(4-methylpiperazin-1-yl)hexan-3-yl]azacyclobutan-3-yl}imidazo[1,5-a]pyridin-8-yl)-N-(isopropyl)benzamide]",6.2,12,0.97,6.5,–
"CCN(C(=O)c1cc(F)ccc1-c1cc(C2CN([C@H](CCCN3CCN(C(C)=O)CC3)C(C)C)C2)cn2c(C)ncc12)C(C)C [Example 311-2, 2-(6-{1-[(3R)-6-(4-acetylpiperazin-1-yl)-2-methylhexan-3-yl]azacyclobutan-3-yl}-3-methylimidazo[1,5-a]pyridin-8-yl)-N-ethyl-5-fluoro-N-(isopropyl)benzamide]",26,23,4.7,11,–
CCN(C(=O)c1cc(F)ccc1-c1cc(C2CN([C@H](CCCN3CCN(C)CC3)C(C)C)C2)cn2c(C)nc(F)c12)C(C)C [Example 312-2],5.3,3.9,0.91,2.5,–
Cc1nc(F)c2c(-c3ccc(F)cc3C(=O)N3CCOC[C@H]3C)cc(C3CN([C@H](CCCN4CCC(F)CC4)C(C)C)C3)cn12 [Example 314],7.3,8.9,1.1,3.4,–
"Cc1nc(F)c2c(-c3ccc(F)cc3C(=O)N3CCOC[C@H]3C)cc(C3CN([C@H](CO[C@H]4CCCN(C)C4)C(C)C)C3)cn12 [Example 321-2, (3R)-4-[5-fluoro-2-(1-fluoro-3-methyl-6-{1-[(2S)-3-methyl-1-{[(3S)-1-methylpiperidin-3-yl]oxy}butan-2-yl]azacyclobutan-3-yl}imidazo[1,5-a]pyridin-8yl)benzoyl]-3-methylmorpholine]",17,32,2.6,10,–
"Cc1ncc2c(-c3ccc(F)cc3C(=O)N3CCOC[C@H]3C)cc(C3CN([C@H](CCCN4CCN(C)CC4)C(C)C)C3)cn12 [Example 323-2, (3R)-4-[5-fluoro-2-(3-methyl-6-{1-[(3R)-2-methyl-6-(4-methylpiperazin-1-yl)hexan-3-yl]azacyclobutan-3-yl}imidazo[1,5-a]pyridin-8-yl)benzoyl]-3-methylmorpholine]",15,17,2.4,8.4,–
CCN1CCN(CCC[C@H](C(C)C)N2CC(c3cc(-c4ccc(F)cc4C(=O)N4CCOC[C@H]4C)c4cnc(C)n4c3)C2)CC1 [Example 324-2],9.2,9.5,1.3,1.3,–
"Cc1nc(F)c2c(-c3ccc(F)cc3C(=O)N3CCOC[C@H]3C)cc(C3CN([C@H](CCCN4C[C@H]5C[C@@H]4CO5)C(C)C)C3)cn12 [Example 353, (1R,4R)-5-[(4R)-4-[3-(1-fluoro-8-{4-fluoro-2-[(3R)-3-methylmorpholin-4-carbonyl]phenyl}-3-methylimidazo[1,5-a]pyridin-6-yl)azacyclobutan-1-yl]-5-methylhexyl]-2-oxa-5-azabicyclo[2.2.1]heptane]",5.4,21,4.1,2.4,> 20000
"Cc1nc(F)c2c(-c3ccc(F)cc3C(=O)N3CCOC[C@H]3C)cc(C3CN([C@H](CN4CCN(C)CC4)C(C)C)C3)cn12 [Example 368-2, (3R)-4-[5-fluoro-2-(1-fluoro-3-methyl-6-{1-[(2S)-3-methyl-1-(4-methylpiperazin-1-yl)butan-2-yl]azacyclobutan-3-yl}imidazo[1,5-a]pyridin-8-yl)benzoyl]-3-methylmorpholine]",8.6,17,5,9.1,13000
CCN(C(=O)c1cc(F)ccc1-c1cc(C2CN([C@H](CCCN3C4COCC3C4)C(C)C)C2)cn2c(C)ncc12)C(C)C [Example 423],2.7,6.1,1.2,2.3,–
"CCN(C(=O)c1cc(F)ccc1-c1cc(C2CN([C@H](CN3CCN(CCO)CC3)C(C)C)C2)cn2c(C)ncc12)C(C)C [Example 431, N-ethyl-5-fluoro-2-(6-{1-[(2S)-1-[4-(2-hydroxylethyl)piperazin-1-yl]-3-methylbutan-2-yl]azacyclobutan-3-yl}-3methylimidazo[1,5-a]pyridin-8-yl)-N-(isopropyl)benzamide]",15,33,4.7,4.6,–
